Marks after values point to notes of the source that are not given here. Strand notation (5' to 3'): a small letter for the sugar, then the base; units joined by * are phosphorothioate-linked, units joined directly phosphodiester-linked; [ ] holds rarer units or linkages, { } end groups; capitals alone tell only the bases. k = constrained ethyl (cEt); [5mC] = 5-methylcytosine; d = 2'-deoxy (DNA)
Each substance was assayed on Yap1 mRNA (assay: Antisense inhibition of human Yap1 in A-431 cells by cEt gapmers, single dose (Example 4, RTS4814)). Details: Table 14; A-431 cells, 5,000 cells per well, free uptake, 2,000 nM, approximately 48 hours; RTS4814; normalized to RIBOGREEN; Yap1 mRNA relative to untreated control; * = targets amplicon region of primer probe set.
Type: cell-based
Method in brief: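 Values are % UTC: Yap1 mRNA by quantitative RT-PCR, normalized to RIBOGREEN total RNA. Cells were exposed ~48 h to 2,000 nM oligonucleotide without transfection. Oligonucleotides were 16-nucleoside gapmers with three cEt nucleosides per wing, ten-deoxy gap, P=S linkages throughout.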

| Substance | YAP1 (% UTC) |
| --- | --- |
| 1075104 (antisense kA*kT*kT*dA*dT*dA*dA*dG*dG*dT*d[5mC]*d[5mC]*dT*kA*k[5mC]*kA) [Compound 1075104] | 67 % UTC |
| 1075872 (k[5mC]*kA*kA*dT*dT*dA*dT*dG*dA*d[5mC]*dA*dA*dA*k[5mC]*kA*kG; antisense) [Compound 1075872] | 21 % UTC |
| 1076224 (kT*kA*kT*dA*dA*dA*d[5mC]*d[5mC]*dT*dT*dG*d[5mC]*dT*kA*k[5mC]*kA; antisense) [Compound 1076224] | 67 % UTC |
| 1075936 (k[5mC]*kT*kT*dA*dT*dA*dT*dT*d[5mC]*dT*d[5mC]*dT*d[5mC]*k[5mC]*kG*kA; antisense) [Compound 1075936] | 49 % UTC |
| 1075808 (kG*k[5mC]*kA*dA*dT*dA*dG*dA*dG*dT*dA*dA*d[5mC]*k[5mC]*kA*kG; antisense) [Compound 1075808] | 3 % UTC |

Same assay, conditions: Table 15; A-431 cells, 5,000 cells per well, free uptake, 2,000 nM, approximately 48 hours; RTS4814; normalized to RIBOGREEN; Yap1 mRNA relative to untreated control; * = targets amplicon region of primer probe set

| Substance | YAP1 (% UTC) |
| --- | --- |
| 1075521 (kA*kA*kA*dT*d[5mC]*dG*dA*dG*dG*d[5mC]*dG*dA*dA*kT*k[5mC]*kT; antisense) [Compound 1075521] | 65 % UTC |
| 1076065 (k[5mC]*kT*kT*dT*dA*dG*dT*dA*dA*d[5mC]*dA*d[5mC]*dG*kA*kA*kT; antisense) [Compound 1076065] | 36 % UTC |
| 1075969 (kG*kT*kA*dT*dT*dT*dA*dA*dG*d[5mC]*d[5mC]*dA*dA*kA*k[5mC]*k[5mC]; antisense) [Compound 1075969] | 11 % UTC |
| 1075329 (kA*kG*kG*dG*dA*dA*dA*dA*d[5mC]*dT*dT*dT*dG*k[5mC]*kA*k[5mC]; antisense) [Compound 1075329] | 26 % UTC |
| 1075297 (kG*kT*kT*dA*dA*dT*dT*dA*dT*dA*dA*dG*d[5mC]*kT*kG*kT; antisense) [Compound 1075297] | 10 % UTC |
| 1074113 (k[5mC]*kT*k[5mC]*d[5mC]*dA*dA*d[5mC]*dT*d[5mC]*d[5mC]*d[5mC]*dT*dT*kG*kA*k[5mC]; antisense) [Compound 1074113] | 61 % UTC |
| 1074561 (antisense kA*kA*kT*dT*d[5mC]*d[5mC]*dA*dA*dT*d[5mC]*dG*dA*dG*kA*k[5mC]*kT) [Compound 1074561] | 10 % UTC |
| 1076385 (kA*kT*kA*dT*dA*dA*dG*dG*dG*dA*d[5mC]*dT*dT*kG*k[5mC]*kT; antisense) [Compound 1076385] | 32 % UTC |
| 1074433 (antisense kA*kA*kG*dT*d[5mC]*dT*dG*dA*dG*dT*dA*dT*dT*kT*kA*kG) [Compound 1074433] | 5* % UTC |
| 1075457 (antisense kA*kG*kT*dA*dA*dT*dA*dT*dG*dT*dA*d[5mC]*dA*kT*kG*kG) [Compound 1075457] | 5 % UTC |
| 1075649 (k[5mC]*kT*kT*d[5mC]*dA*dA*dT*dA*dA*dA*dG*dT*dG*kG*kG*kA; antisense) [Compound 1075649] | 56 % UTC |
| 1075873 (k[5mC]*kT*kT*dG*dA*dA*dT*dA*d[5mC]*dT*dA*d[5mC]*dA*k[5mC]*k[5mC]*kA; antisense) [Compound 1075873] | 16 % UTC |

Same assay, conditions: Table 16; A-431 cells, 5,000 cells per well, free uptake, 2,000 nM, approximately 48 hours; RTS4814; normalized to RIBOGREEN; Yap1 mRNA relative to untreated control cells

| Substance | YAP1 (% UTC) |
| --- | --- |
| 1076066 (k[5mC]*kA*kT*dA*dT*dA*dA*dG*dA*dT*dG*dT*dT*kT*kG*k[5mC]; antisense) [Compound 1076066] | 8 % UTC |
| 1076258 (k[5mC]*kT*kT*dT*dA*dG*dG*dT*dG*d[5mC]*d[5mC]*dT*d[5mC]*k[5mC]*kT*kT; antisense) [Compound 1076258] | 10 % UTC |
| 1074178 (antisense kG*k[5mC]*k[5mC]*dT*d[5mC]*d[5mC]*d[5mC]*d[5mC]*d[5mC]*dG*dA*d[5mC]*dG*k[5mC]*kG*k[5mC]) [Compound 1074178] | 95 % UTC |
| 1075522 (k[5mC]*kA*kA*dA*dT*d[5mC]*dG*dA*dG*dG*d[5mC]*dG*dA*kA*kT*k[5mC]; antisense) [Compound 1075522] | 82 % UTC |
| 1076002 (kA*kT*kT*dT*dA*dA*dT*dG*dG*d[5mC]*dT*dT*dG*k[5mC]*kA*kT; antisense) [Compound 1076002] | 21 % UTC |
| 1075906 (k[5mC]*k[5mC]*kT*d[5mC]*dA*dA*dT*dA*d[5mC]*dA*dG*dA*dT*kG*kA*kA; antisense) [Compound 1075906] | 39 % UTC |
| 1076034 (kA*kA*kT*dT*dA*dG*dA*dA*dA*d[5mC]*dT*dT*dG*kG*k[5mC]*k[5mC]; antisense) [Compound 1076034] | 74 % UTC |
| 1074722 (antisense kA*kG*kG*dA*dA*dG*dA*dT*d[5mC]*dT*d[5mC]*d[5mC]*dA*kT*kA*kT) [Compound 1074722] | 57 % UTC |

Same assay, conditions: Table 17; A-431 cells, 5,000 cells per well, free uptake, 2,000 nM, approximately 48 hours; RTS4814; normalized to RIBOGREEN; Yap1 mRNA relative to untreated control cells

| Substance | YAP1 (% UTC) |
| --- | --- |
| 1074819 (kA*kA*kG*d[5mC]*dA*d[5mC]*dT*dG*dA*dA*dT*dA*dT*kT*kG*k[5mC]; antisense) [Compound 1074819] | 33 % UTC |
| 1075043 (antisense k[5mC]*k[5mC]*k[5mC]*d[5mC]*dA*dA*dA*dA*dG*d[5mC]*d[5mC]*d[5mC]*dT*kA*k[5mC]*kT) [Compound 1075043] | 73 % UTC |
| 1074339 (antisense kA*k[5mC]*kT*dG*dG*dA*dT*dT*dT*dT*dG*dA*dG*kT*k[5mC]*k[5mC]) [Compound 1074339] | 31 % UTC |
| 1075971 (kT*kA*kT*dT*dA*dA*d[5mC]*dA*dT*dA*d[5mC]*d[5mC]*dT*k[5mC]*kA*kT; antisense) [Compound 1075971] | 28 % UTC |
| 1076131 (kT*kA*kT*dT*dA*dT*dG*dA*dG*dG*dA*d[5mC]*dT*kG*kA*kT; antisense) [Compound 1076131] | 23 % UTC |
| 1075459 (antisense kA*kA*k[5mC]*d[5mC]*dA*dA*dG*dG*dA*dT*dA*dG*dT*k[5mC]*kA*kT) [Compound 1075459] | 37 % UTC |
| 1074147 (antisense kA*kG*kA*dA*dG*d[5mC]*dG*dG*d[5mC]*dG*dA*d[5mC]*dG*kG*k[5mC]*kT) [Compound 1074147] | 23 % UTC |
| 1075907 (kA*kA*kT*dT*dA*d[5mC]*dT*dA*d[5mC]*dT*dG*dG*d[5mC]*k[5mC]*kA*kT; antisense) [Compound 1075907] | 55 % UTC |
| 1075523 (kA*kA*kT*dT*dA*dA*dG*dG*dG*d[5mC]*d[5mC]*d[5mC]*dA*k[5mC]*kA*kA; antisense) [Compound 1075523] | 78 % UTC |
| 1076163 (kG*kA*kT*dA*dT*dA*dA*dG*dT*dT*dA*d[5mC]*d[5mC]*kA*kA*kT; antisense) [Compound 1076163] | 16 % UTC |
| 1075171 (antisense k[5mC]*k[5mC]*k[5mC]*d[5mC]*dA*dA*dT*dA*dT*dA*dA*dA*dG*kA*kA*k[5mC]) [Compound 1075171] | 88 % UTC |
| 1075555 (kG*k[5mC]*k[5mC]*dA*dA*dA*dA*dA*dT*dT*d[5mC]*dT*dT*kG*k[5mC]*kA; antisense) [Compound 1075555] | 92 % UTC |

Same assay, conditions: Yap1 mRNA remaining as percent of untreated control; 3-10-3 cEt gapmers; A-431 cells; Table 36

| Substance | YAP1 (% UTC) |
| --- | --- |
| 1076310 (kA*k[5mC]*k[5mC]*d[5mC]*dT*dA*dT*dA*d[5mC]*dT*dT*dG*dA*kA*kT*kT; antisense) [compound 1076310] | 36 % UTC |
| 1075638 (antisense kA*kT*kT*dA*dA*d[5mC]*d[5mC]*dA*dG*dA*dA*dG*d[5mC]*k[5mC]*kT*kG) [compound 1075638] | 79 % UTC |
| 1075926 (antisense kG*kT*kA*dG*dA*dA*d[5mC]*d[5mC]*dT*dA*dT*dA*dT*kT*kA*kT) [compound 1075926] | 25 % UTC |
| 1074422 (kA*kA*kA*d[5mC]*dA*dG*dG*d[5mC]*dT*d[5mC]*dA*d[5mC]*dT*kT*k[5mC]*k[5mC]; antisense) [compound 1074422] | 9* % UTC |
| 1075094 (kG*kA*kT*dA*dA*dA*dT*dG*dT*dA*dA*d[5mC]*dT*kA*kG*k[5mC]; antisense) [compound 1075094] | 10 % UTC |
| 1075286 (antisense kA*kT*kT*dA*d[5mC]*dG*dG*dA*d[5mC]*dA*dG*dA*dA*kG*kT*kG) [compound 1075286] | 48 % UTC |
| 1076118 (k[5mC]*kG*kT*dA*dA*dA*dT*dT*dG*dA*dG*dG*d[5mC]*k[5mC]*k[5mC]*kA; antisense) [compound 1076118] | 45 % UTC |
| 1075798 (kA*kT*kT*dT*dA*dG*dA*dT*dA*dG*dT*dT*dA*k[5mC]*kT*kG; antisense) [compound 1075798] | 21 % UTC |

Same assay, conditions: Yap1 mRNA remaining as percent of untreated control; 3-10-3 cEt gapmers; A-431 cells; Table 37

| Substance | YAP1 (% UTC) |
| --- | --- |
| 1074583 (DNA kG*kT*kA*dA*dA*d[5mC]*d[5mC]*dA*d[5mC]*dT*dA*dT*dA*kA*kA*kG; antisense) [compound 1074583] | 30 % UTC |
| 1076055 (kA*kA*kT*dT*dA*d[5mC]*dT*dA*dA*d[5mC]*dA*dA*dT*k[5mC]*kT*k[5mC]; antisense) [compound 1076055] | 45 % UTC |
| 1075767 (kT*kA*kT*dT*dA*d[5mC]*dA*d[5mC]*dA*dG*dG*d[5mC]*dA*kG*kG*k[5mC]; antisense) [compound 1075767] | 12 % UTC |

Same assay, conditions: table after Table 37, headed TABLE 32 (gapmers targeting SEQ ID NO.: 3); A-431 cells, free uptake, 2,000 nM, approximately 48 hours, RTS4814

| Substance | YAP1 (% UTC) |
| --- | --- |
| 1074886 (k[5mC]*kA*kG*dG*dG*d[5mC]*dT*dA*dA*d[5mC]*dT*d[5mC]*d[5mC]*kT*kG*k[5mC]; antisense) [compound 1074886] | 104 % UTC |

From patent US11214803B2, “Modulators of YAP1 expression” (Ionis Pharmaceuticals, Inc., priority 2019, dated 2022)
